{
  "source": "patent EP0515684A1",
  "about": "“INHIBITOR OF DENATURED LDL FORMATION” (Chugai Seiyaku Kabushiki Kaisha, priority 1990, dated 1991)",
  "key": {"rabbit or human LDL": {"test_system": "rabbit or human LDL", "experiment": "Electrophoretic mobility in agarose gel of LDL oxidised with Cu2+", "assay_type": "biochemical", "settings": "10 µM of Cu²⁺, 37°C approximately 24 hours, expressed by regarding the mobility of LDL as 1.00 (Control 1.61)", "procedure": "(§1) The biological properties of the compounds as shown hereinafter were examined by the following methods. • (1) The amount of thiobarbituric acid reactive substances: 5 µM of Cu²⁺ was added to rabbit LDL, prepared by the method reported by Havel et al., followed by heating. Then the antioxidative effect of each compound was examined by using the thiobarbituric acid reactive substances (TBARS) thus formed as the guidance. […] 0.5 ml of an n-butanol solution containing 0.2 µM of MCLA and 10 mM of linoleic acid was introduced into a vial for luminescence analysis and the luminescence due to autoxidation was measured in a thermostat at 37°C. […] To the obtained plasma, were added EDTA-NaN₃ (a 5% solution of pH 7.4) and a benzamidine solution (60 mg/ml) respectively in amounts of 0.8 ml and 0.5 ml per 100 ml of the plasma. Then rabbit or human LDL (1.019 < d < 1.063) was prepared by ultracentrifugation in accordance with the method of Havel et al.*. After performing the ultracentifugation again, the LDL was washed and concentrated. Then it was dialyzed against a 150 mM NaCl - 2 mM Na₂HPO₄ solution at 4°C and KBr was removed. The protein content was determined by Lowry method** and then the LDL was subjected to the subsequent procedure. (Measurement of electrophoretic mobility in agarose gel) 10 µM of Cu²⁺ and a specimen were added to an LDL-containing solution (3.00 µg protein/ml). After incubating at 37°C for approximately 24 hours, a portion (1 µl) thereof was applied onto an agarose gel film (Universal Film, manufactured by Corning Co.) and then subjected to electrophoresis (Agarose Gel Electrophoresis System for Lipoprotein, manufactured by Corning Co.). Thus the mobility was measured by staining lipids with Fat Red 7B. […] After 3 days, peritoneal macrophages were collected from the mouse and incubated in an RPMI 1640 medium containing 10% of FBS. The macrophages were used in the • examination on the next day."}, "rabbit LDL": {"test_system": "rabbit LDL", "experiment": "Amount of thiobarbituric acid reactive substances (TBARS) formed on Cu2+ oxidation of LDL", "assay_type": "biochemical", "settings": "5 µM of Cu²⁺ added to rabbit LDL, followed by heating", "procedure": "as §1"}},
  "data": [
    {"molecule": "COc1cc(NCc2ccccc2)cc(OC)c1OC", "note": "[Compound 1, N-benzyl-3,4,5-trimethoxyaniline]", "values": [
      {"measurement": "Mobility", "setting": "rabbit or human LDL; Compound conc. 10 x 10⁻⁶ M", "result": 1.17},
      {"measurement": "Formed TBARS (%)", "setting": "rabbit LDL; Compound conc. 10^-5 M, 10 µM", "result": 33, "unit": "%"},
      {"measurement": "Formed TBARS (%)", "setting": "rabbit LDL; Compound conc. 10^-6 M, 1 µM", "result": 49, "unit": "%"}
    ]},
    {"molecule": "COc1cc(NC2CCC3CCCCC3C2)cc(OC)c1OC", "note": "(stereo not drawn) [Compound 110]", "values": [
      {"measurement": "Formed TBARS (%)", "setting": "rabbit LDL; Compound conc. 10^-5 M, 10 µM", "result": 7, "unit": "%"},
      {"measurement": "Formed TBARS (%)", "setting": "rabbit LDL; Compound conc. 10^-6 M, 1 µM", "result": 16, "unit": "%"}
    ]},
    {"molecule": "CCCCCCCCCCCCNc1cc(OC)c(OC)c(OC)c1", "note": "[Compound 113]", "values": [
      {"measurement": "Formed TBARS (%)", "setting": "rabbit LDL; Compound conc. 10^-5 M, 10 µM", "result": 29, "unit": "%"},
      {"measurement": "Formed TBARS (%)", "setting": "rabbit LDL; Compound conc. 10^-6 M, 1 µM", "result": 66, "unit": "%"}
    ]},
    {"molecule": "CCCCCCCCCCCCN(CCCCCCCCCCCC)c1cc(OC)c(OC)c(OC)c1", "note": "[Compound 114]", "values": [
      {"measurement": "Formed TBARS (%)", "setting": "rabbit LDL; Compound conc. 10^-5 M, 10 µM", "result": 93, "unit": "%"},
      {"measurement": "Formed TBARS (%)", "setting": "rabbit LDL; Compound conc. 10^-6 M, 1 µM", "result": 94, "unit": "%"}
    ]},
    {"molecule": "COc1cc(NCCC(C)CCCC(C)CCCC(C)CCCC(C)C)cc(OC)c1OC", "note": "(stereo not drawn) [Compound 115]", "values": [
      {"measurement": "Formed TBARS (%)", "setting": "rabbit LDL; Compound conc. 10^-5 M, 10 µM", "result": 15, "unit": "%"},
      {"measurement": "Formed TBARS (%)", "setting": "rabbit LDL; Compound conc. 10^-6 M, 1 µM", "result": 71, "unit": "%"}
    ]},
    {"molecule": "COc1cc(NCC=C(C)C)cc(OC)c1OC", "note": "[Compound 116]", "values": [
      {"measurement": "Formed TBARS (%)", "setting": "rabbit LDL; Compound conc. 10^-5 M, 10 µM", "result": 33, "unit": "%"},
      {"measurement": "Formed TBARS (%)", "setting": "rabbit LDL; Compound conc. 10^-6 M, 1 µM", "result": 61, "unit": "%"}
    ]},
    {"molecule": "COc1cc(N(CC=C(C)C)CC=C(C)C)cc(OC)c1OC", "note": "[Compound 117]", "values": [
      {"measurement": "Formed TBARS (%)", "setting": "rabbit LDL; Compound conc. 10^-5 M, 10 µM", "result": 35, "unit": "%"},
      {"measurement": "Formed TBARS (%)", "setting": "rabbit LDL; Compound conc. 10^-6 M, 1 µM", "result": 63, "unit": "%"}
    ]},
    {"molecule": "COc1cc(NC/C=C(\\C)CCC=C(C)C)cc(OC)c1OC", "note": "[Compound 118]", "values": [
      {"measurement": "Mobility", "setting": "rabbit or human LDL; Compound conc. 10 x 10⁻⁶ M", "result": 1.17},
      {"measurement": "Formed TBARS (%)", "setting": "rabbit LDL; Compound conc. 10^-5 M, 10 µM", "result": 37, "unit": "%"},
      {"measurement": "Formed TBARS (%)", "setting": "rabbit LDL; Compound conc. 10^-6 M, 1 µM", "result": 56, "unit": "%"}
    ]},
    {"molecule": "CC(C)(C)c1cc(CNCc2ccccc2)cc(C(C)(C)C)c1O", "note": "[Compound 185, N-benzyl-3,5-di-tert-butyl-4-hydroxybenzylamine]", "values": [
      {"measurement": "Mobility", "setting": "rabbit or human LDL; Compound conc. 10 x 10⁻⁶ M", "result": 1.15}
    ]},
    {"molecule": "CC(C)=CCC/C(C)=C/CCC(C)Nc1ccc(-c2cc(C(C)(C)C)c(O)c(C(C)(C)C)c2)cc1", "note": "(stereo not drawn) [Compound 188, 4-[4'-[(trans-1,5,9-trimethyl-4,8-decadienyl)amino]phenyl]2,6-di-tert-butylphenol]", "values": [
      {"measurement": "Mobility", "setting": "rabbit or human LDL; Compound conc. 10 x 10⁻⁶ M", "result": 1.15}
    ]},
    {"molecule": "O=C(Nc1ccc(C(=O)c2ccccc2)cc1)c1ccc(O)c(O)c1", "note": "[Compound 194]", "values": [
      {"measurement": "Mobility", "setting": "rabbit or human LDL; Compound conc. 10 x 10⁻⁶ M", "result": 1.00}
    ]},
    {"molecule": "O=C(c1ccc(O)c(O)c1)N1CCN(C(c2ccccc2)c2ccccc2)CC1", "note": "[Compound 197]", "values": [
      {"measurement": "Mobility", "setting": "rabbit or human LDL; Compound conc. 10 x 10⁻⁶ M", "result": 1.00}
    ]},
    {"molecule": "Oc1ccc(-c2onc3ccc(Cl)cc23)cc1O", "note": "[Compound 205, 3-(3',4'-dihydroxyphenyl)-5-chlorobenzoiso-oxazole]", "values": [
      {"measurement": "Mobility", "setting": "rabbit or human LDL; Compound conc. 10 x 10⁻⁶ M", "result": 1.00}
    ]},
    {"molecule": "CC(C)=CCC/C(C)=C\\CC/C(C)=C/Cn1cnc2c1C(=O)C(C)=C(C)C2=O", "note": "[Compound 206, 5,6-dimethyl-1-[(2E,6Z)-3,7,11-trimethyldodeca-2,6,10-trienyl]-4,7-benzimidazoledione]", "values": [
      {"measurement": "Mobility", "setting": "rabbit or human LDL; Compound conc. 100 x 10⁻⁶ M", "result": 1.00}
    ]}
  ]
}
